Source: patent publication US10851088B2, “Polymorphs and solid forms of a pyrimidinylamino-pyrazole compound, and methods of production” (Denali Therapeutics Inc., priority 2017, dated 2020)
In brackets after ≈: the same amount, converted by molar mass. Where two headings read alike, the source gives them in different places.

Legend:
Assay type in all cases: physicochemical
[1] = 24 hrs solubility in H2O at RT (HPLC of supernatant, XRPD of residual solids)
Procedure: The solubility at 24 hrs of Forms A, C, and D was measured in water at RT. Form A, Form C, and Form D samples were suspended into H2O with dose concentration of 10 mg/mL. After slurrying the suspensions at RT for 24 hrs (1000 rpm), the supernatants were separated for HPLC solubility measurement and the residual solids were characterized by XRPD.

[2] = Dynamic vapor sorption (DVS) hygroscopicity test; settings: for water uptake: at 80% RH at 25° C., DVS
Procedure: To investigate the solid form stability as a function of humidity, Dynamic Vapor Sorption (DVS) isotherm plots of Form A, Form C, and Form D were collected at 25° C. between 0 and 95% relative humidity (RH) by the procedures of Example 8. […] DVS was measured via a SMS (Surface Measurement Systems) DVS Intrinsic. The relative humidity at 25° C. were calibrated against deliquescence points of LiCl, Mg(NO3)2 and KCl. [table]

[3] = Slurry competition experiments (thermodynamic stability of anhydrate forms); settings: for thermodynamic stability, Form C versus Form D: slurry competition
Procedure: Slurry competition experiments were performed to investigate the inter-conversion relationship between three anhydrates (Form A, C, and D). […] Slurry competition was first performed between Form A and C at RT and 50° C. Form C was obtained after slurrying for 40 hrs at RT or 2 hrs at 50° C. […] Therefore, slurry competition was further performed between Form C and D in various solvent systems. The solvent effect of H2O was discovered to be associated with the inter-conversion relationship between Form C and D, with form D forming under anhydrous conditions.
To understand the thermodynamic stability relationship between Form A and Form C, slurry competition experiments were performed at RT and 50° C. in different solvent systems, including acetone/n-heptane, methyl tert-butylether (MTBE)/heptane, and water. Form A was used to saturate the corresponding solvent before filtered to obtain a near-saturated solution. Equal amount of Form A and C samples were weighed and then mixed with the prepared near-saturated solution to form a new suspension, which was stirred magnetically (˜1000 rpm) at RT and 50° C. The XRPD patterns of remaining solids after slurry were measured. […] Form D was obtained via slurrying Form A in MTBE/n-heptane (1:4, v/v) at RT for 1 day, with the addition of Form D sample as seeds.
To further understand the thermodynamic stability relationship between Form C and Form D, slurry competition experiments were performed at RT and 70° C. in various solvent systems, including methyl tert-butylether/heptane, water, cyclohexane, and ethanol/isooctane. Equal amount of Form C and D samples were weighed and then mixed with the near-saturated solution of Form A in corresponding solvent to form a suspension, which was stirred magnetically (˜1000 rpm) at different temperatures. The XRPD patterns of remaining solids after slurry were measured. […] Water content in process solvents were monitored and controlled during the manufacturing of Form C or D samples. […] Water activity (or relative humidity) was monitored and controlled during the manufacture and storage of Form C or D samples.

[4] = Approximate solubility in solvents, used to choose slurry solvent systems
[5] = 24 hrs slurry at 10 mg/mL dose concentration, HPLC

With `CNc1nc(Nc2cn(C(C)(C)C#N)nc2C)ncc1C(F)(F)F` [Form A, 2-methyl-2-(3-methyl-4-(4-(methylamino)-5-(trifluoromethyl)pyrimidin-2-ylamino)-1H-pyrazol-1-yl)propanenitrile] the “form change after 24 hrs solubility evaluation (XRPD of residual solids)” value (“form change … (XRPD of residual solids)” below) [1] was “No form change”, the solubility at 24 h ([1]; water, thermodynamic from solid, 24 hrs slurry at 10 mg/mL dose concentration, HPLC) was 180 µg/mL (≈ 530 µM) and the water uptake [2] was 0.04%.
With `CNc1nc(Nc2cn(C(C)(C)C#N)nc2C)ncc1C(F)(F)F` [Form C, 2-methyl-2-(3-methyl-4-(4-(methylamino)-5-(trifluoromethyl)pyrimidin-2-ylamino)-1H-pyrazol-1-yl)propanenitrile] the “form change … (XRPD of residual solids)” value [1] was “No form change”, the “24 Hrs Solubility in H2O at RT” value [1, 5] was 0.14 mg/mL and the Hygroscopicity ([2]; DVS at 25° C., 0 to 95% RH) was “slightly hygroscopic”. For the same molecule, the water uptake [2] was 0.6%, the “thermodynamic stability, Form A versus Form C” value ([3]; slurry competition of equal amounts of Form A and C, RT and 50° C., various solvents) was “thermodynamically more stable than Form A” and the “thermodynamic stability, Form C versus Form D” value ([3]; water activity aw≥0.5 at RT) was “more stable”.
In the case of `CNc1nc(Nc2cn(C(C)(C)C#N)nc2C)ncc1C(F)(F)F` [Form D, 2-methyl-2-(3-methyl-4-(4-(methylamino)-5-(trifluoromethyl)pyrimidin-2-ylamino)-1H-pyrazol-1-yl)propanenitrile], the “form change … (XRPD of residual solids)” value [1] is reported as “No form change”, the “24 Hrs Solubility in H2O at RT” value [1, 5] is reported as 0.11 mg/mL and the water uptake [2] is reported as 0.05%. For the same molecule, the “thermodynamic stability, Form C versus Form D” value ([3]; water activity aw≤0.2 at RT) was “thermodynamically more stable”.
In the case of `CNc1nc(Nc2cn(C(C)(C)C#N)nc2C)ncc1C(F)(F)F` [Formula I compound, 2-methyl-2-(3-methyl-4-(4-(methylamino)-5-(trifluoromethyl)pyrimidin-2-ylamino)-1H-pyrazol-1-yl)propanenitrile], the solubility ([4]; H2O and non-polar solvents (e.g., n-heptane, cyclohexane), water, read-out: solubility in H2O and non-polar solvents) is reported as < 2 mg/mL and the solubility ([4]; organic solvent or mixture, solvents other than H2O and non-polar solvents, read-out: solubility in other solvents) is reported as > 40 mg/mL.
